No end group written: not given here.
T1: MNLNI (SAT C-terminal pentapeptide) (Haemophilus influenzae)
T1 chain: MNLNI

B1: HiOASS-A (protein)
chain: MAIYADNSYSIGNTPLVRLKHFGHNGNVVVKIEGRNPSYSVKCRIGANMVWQAEKDGTLTKGKEIVDATSGNTGIALAYVAAARGYKITLTMPETMSLERKRLLCGLGVNLVLTEGAKGMKGAIAKAEEIVASDPSRYVMLKQFENPANPQIHRETTGPEIWKDTDGKVDVVVAGVGTGGSITGISRAIKLDFGKQITSVAVEPVESPVISQTLAGEEVKPGPHKIQGIGAGFIPKNLDLSIIDRVETVDSDTALATARRLMAEEGILAGISSGAAVAAADRLAKLPEFADKLIVVILPSASERYLSTALFEGIEG

What was measured:
HiOASS-A = HiOASS-A (Haemophilus influenzae, UniProt P45040); experiment: biochemical
[1] = target: T1, MNLNI (SAT C-terminal pentapeptide); experiment: fluorescence titration

Molecule | Kd (HiOASS-A) [mM] | Kd [1] [mM]
MNENI [MNENI] | ~7 | 
B1 |  | 0.044
